Experimental data: ChEMBL document CHEMBL4665919, “Novel Tricyclic Pyroglutamide Derivatives as Potent RORγt Inverse Agonists Identified using a Virtual Screening Approach” (ACS Med Chem Lett, 2020)

Key:
[1] = Half life in rat liver microsomes; assay type: ADME, Microsome
[2] = Half life in mouse liver microsomes; assay type: ADME, Microsome
[3] = Half life in human liver microsomes; assay type: ADME, Microsome
[4] = target: T1, Nuclear receptor ROR-gamma (Homo sapiens, UniProt P51449); experiment: Inverse agonist activity at Gal4-fused RORgammat LBD (unknown origin) by reporter gene assay
T1 sequence (P51449 whole entry): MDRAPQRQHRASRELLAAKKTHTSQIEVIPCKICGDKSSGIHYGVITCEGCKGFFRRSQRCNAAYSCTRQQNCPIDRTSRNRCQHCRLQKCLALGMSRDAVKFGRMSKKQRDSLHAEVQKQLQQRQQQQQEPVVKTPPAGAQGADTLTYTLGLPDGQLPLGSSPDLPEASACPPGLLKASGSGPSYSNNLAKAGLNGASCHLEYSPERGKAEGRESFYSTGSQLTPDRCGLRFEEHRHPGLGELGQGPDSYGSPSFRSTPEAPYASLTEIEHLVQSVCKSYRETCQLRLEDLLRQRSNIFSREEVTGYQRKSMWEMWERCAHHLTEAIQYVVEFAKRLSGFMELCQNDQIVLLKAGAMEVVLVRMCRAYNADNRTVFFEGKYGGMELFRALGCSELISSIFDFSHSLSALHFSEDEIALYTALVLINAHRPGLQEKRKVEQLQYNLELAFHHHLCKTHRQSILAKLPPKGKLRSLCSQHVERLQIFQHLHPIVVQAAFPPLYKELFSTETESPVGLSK

[5] = (§1) AUC in IL-23 induced acanthosis C57BL/6 mouse model of psoriasis measured as (3R,5S)-3-Fluoro-5-((3aR,9bR)-9b-((4-fluorophenyl)sulfonyl)-7-(perfluoropropan-2-yl)-2,3,3a,4,5,9b-hexahydro-1H-benzo[e]indole-3-carbonyl)-1-(2-hydroxy-2-methylpropyl)pyrrolidin-2-one at 15 mg/kg, po qd administered for 2 hrs before IL-23 injection measured on day 1; assay type: ADME, organism-based; parameters: time 1 day, dose 15 mg/kg; conditions: in vivo, 24 h
[6] = Ratio of IC90 for inverse agonist activity at RORgammat in human whole blood assessed as IL-17 production by ELISA to drug concentration in IL-23 induced acanthosis in Th17 mouse measured as (3R,5S)-3-Fluoro-5-((3aR,9bR)-9b-((4-fluorophenyl)sulfonyl)-7-(perfluoropropan-2-yl)-2,3,3a,4,5,9b-hexahydro-1H-benzo[e]indole-3-carbonyl)-1-(2-hydroxy-2-methylpropyl)pyrrolidin-2-one at 15 mg/kg, po qd …
[7] = as §1, with “45” for “15”; assay type: ADME, organism-based; parameters: time 1 day, dose 45 mg/kg; conditions: in vivo, 24 h
[8] = as §1, with “Drug concentration” for “AUC”, “acanthosis in” for “acanthosis”, “mouse” for “mouse model of psoriasis”; assay type: ADME, organism-based; conditions: in vivo, 24 h, time 1 day, read-out: Ct
[9] = as §1, with “Drug concentration” for “AUC”, “acanthosis in” for “acanthosis”, “mouse” for “mouse model of psoriasis”, “5” for “15”; assay type: ADME, organism-based; conditions: in vivo, 24 h, time 1 day, read-out: Ct
[10] = Toxicity in IL-23 induced acanthosis C57BL/6 mouse model of psoriasis assessed as change in body weight measured as (3R,5S)-3-Fluoro-5-((3aR,9bR)-9b-((4-fluorophenyl)sulfonyl)-7-(perfluoropropan-2-yl)-2,3,3a,4,5,9b-hexahydro-1H-benzo[e]indole-3-carbonyl)-1-(2-hydroxy-2-methylpropyl)pyrrolidin-2-one at 5 to 45 mg/kg, po qd administered for 9 days 2 hrs before IL-23 injection measured every other day; assay type: organism-based; conditions: in vivo, dose 5-45 mg/kg
[11] = as §1, with “Drug concentration in” for “AUC in”, “acanthosis in” for “acanthosis”, “mouse” for “mouse model of psoriasis”, “at 45” for “at 15”, “day 11” for “day 1”; assay type: ADME, organism-based; conditions: in vivo, 24 h, time 1 day, read-out: Ct
[12] = as §1, with “5” for “15”; assay type: ADME, organism-based; parameters: time 1 day, dose 5 mg/kg; conditions: in vivo, 24 h
Mus musculus [13] = experiment: (§2) Suppression of ear thickness in IL-23 induced acanthosis C57BL/6 mouse model of psoriasis measured as (3R,5S)-3-Fluoro-5-((3aR,9bR)-9b-((4-fluorophenyl)sulfonyl)-7-(perfluoropropan-2-yl)-2,3,3a,4,5,9b-hexahydro-1H-benzo[e]indole-3-carbonyl)-1-(2-hydroxy-2-methylpropyl)pyrrolidin-2-one at 15 mg/kg, po qd for 9 days 2 hrs before IL-23 injection measured every other day relative to IL-23 antibody treatment; assay type: functional; conditions: C57BL/6, po, 216 h, time 9 day
[14] = Ratio of IC90 for inverse agonist activity at RORgammat in human whole blood assessed as IL-17 production by ELISA to drug concentration in IL-23 induced acanthosis in Th17 mouse measured as (3R,5S)-3-Fluoro-5-((3aR,9bR)-9b-((4-fluorophenyl)sulfonyl)-7-(perfluoropropan-2-yl)-2,3,3a,4,5,9b-hexahydro-1H-benzo[e]indole-3-carbonyl)-1-(2-hydroxy-2-methylpropyl)pyrrolidin-2-one at 5 mg/kg, po qd administered for 9 days 2 hrs before IL-23 injection
[15] = (§3) Drug concentration in IL-23 induced acanthosis in C57BL/6 mouse measured as (3R,5S)-3-Fluoro-5-((3aR,9bR)-9b-((4-fluorophenyl)sulfonyl)-7-(perfluoropropan-2-yl)-2,3,3a,4,5,9b-hexahydro-1H-benzo[e]indole-3-carbonyl)-1-(2-hydroxy-2-methylpropyl)pyrrolidin-2-one at 15 mg/kg, po qd administered for 9 days 2 hrs before IL-23 injection; assay type: ADME, organism-based; conditions: in vivo, 216 h, time 9 day, read-out: Ct
[16] = as §3, with “Cmax” for “Drug concentration”, “acanthosis” for “acanthosis in”, “mouse model of psoriasis” for “mouse”; assay type: ADME, organism-based; parameters: route oral, dose 15 mg/kg, time 9 day; conditions: in vivo, 216 h
[17] = as §3, with “Cmax” for “Drug concentration”, “acanthosis” for “acanthosis in”, “mouse model of psoriasis” for “mouse”, “5” for “15”; assay type: ADME, organism-based; parameters: route oral, dose 5 mg/kg, time 9 day; conditions: in vivo, 216 h
[18] = (§4) AUC in IL-23 induced acanthosis C57BL/6 mouse model of psoriasis measured as (3R,5S)-3-Fluoro-5-((3aR,9bR)-9b-((4-fluorophenyl)sulfonyl)-7-(perfluoropropan-2-yl)-2,3,3a,4,5,9b-hexahydro-1H-benzo[e]indole-3-carbonyl)-1-(2-hydroxy-2-methylpropyl)pyrrolidin-2-one at 5 mg/kg, po qd administered for 9 days 2 hrs before IL-23 injection; assay type: ADME, organism-based; parameters: dose 5 mg/kg, time 9 day; conditions: in vivo, 216 h
[19] = as §3, with “5” for “15”; assay type: ADME, organism-based; conditions: in vivo, 216 h, time 9 day, read-out: Ct
[20] = as §4, with “at 15” for “at 5”; assay type: ADME, organism-based; parameters: time 9 day, dose 15 mg/kg; conditions: in vivo, 216 h
[21] = as §3, with “45” for “15”; assay type: ADME, organism-based; conditions: in vivo, 216 h, time 9 day, read-out: Ct
[22] = as §4, with “Cmax in” for “AUC in”, “at 45” for “at 5”; assay type: ADME, organism-based; parameters: route oral, dose 45 mg/kg, time 9 day; conditions: in vivo, 216 h
[23] = as §4, with “at 45” for “at 5”; assay type: ADME, organism-based; parameters: time 9 day, dose 45 mg/kg; conditions: in vivo, 216 h
[24] = Ratio of IC90 for inverse agonist activity at RORgammat in human whole blood assessed as IL-17 production by ELISA to drug concentration in IL-23 induced acanthosis in […] mouse measured as (3R,5S)-3-Fluoro-5-((3aR,9bR)-9b-((4-fluorophenyl)sulfonyl)-7-(perfluoropropan-2-yl)-2,3,3a,4,5,9b-hexahydro-1H-benzo[e]indole-3-carbonyl)-1-(2-hydroxy-2-methylpropyl)pyrrolidin-2-one at 45 mg/kg, po qd …
Mus musculus [25] = experiment: as §2, with “45” for “15”, “qd administered” for “qd”; assay type: functional; conditions: C57BL/6, po, 216 h, time 9 day
[26] = Solubility of the compound at pH 6.7; assay type: physicochemical; conditions: buffer
[27] = target: T1, Nuclear receptor ROR-gamma; experiment: Inverse agonist activity at RORgammat in human whole blood assessed as IL-17 production by ELISA; assay type: tissue-based

[2H]C([2H])([2H])N1C(=O)[C@@H](F)C[C@H]1C(=O)N1CC[C@@]2(S(=O)(=O)c3ccc(F)cc3)c3ccc(C(F)(C(F)(F)F)C(F)(F)F)cc3CC[C@@H]12
half-life [1]: 48 min | half-life [2]: 85 min | half-life [3]: > 120 min

CN1C(=O)CC[C@H]1C(=O)N1CC[C@@]2(S(=O)(=O)c3ccc(F)cc3)c3ccc(C(F)(C(F)(F)F)C(F)(F)F)cc3CC[C@@H]12
half-life [1]: > 120 min | half-life [2]: 116 min | half-life [3]: 87 min

N#Cc1ccc(CN2C(=O)[C@H](F)C[C@H]2C(=O)N2CC[C@@]3(S(=O)(=O)c4ccc(F)cc4)c4ccc(C(F)(C(F)(F)F)C(F)(F)F)cc4CC[C@@H]23)cc1
half-life [1]: 61 min | EC50 [4]: 30 nM | half-life [2]: 74 min | half-life [3]: 58 min

O=C(O)CN1C(=O)[C@H](F)C[C@H]1C(=O)N1CC[C@@]2(S(=O)(=O)c3ccc(F)cc3)c3ccc(C(F)(C(F)(F)F)C(F)(F)F)cc3CC[C@@H]12
EC50 [4]: 1500 nM

CC(C)N1C(=O)[C@H](F)C[C@H]1C(=O)N1CC[C@@]2(S(=O)(=O)c3ccc(F)cc3)c3ccc(C(F)(C(F)(F)F)C(F)(F)F)cc3CC[C@@H]12
half-life [1]: 45 min | half-life [2]: 52 min | half-life [3]: 50 min

CC(C)(CN1C(=O)[C@H](F)C[C@H]1C(=O)N1CC[C@@]2(S(=O)(=O)c3ccc(F)cc3)c3ccc(C(F)(C(F)(F)F)C(F)(F)F)cc3CC[C@@H]12)OP(=O)(O)O
AUC [5]: 30.9 µM·h | Ratio [6]: 3.2 | AUC [7]: 274.3 µM·h | concentration [8]: 480 nM | concentration [9]: 210 nM | Activity [10]: Non-Toxic | concentration [11]: 910 nM | AUC [12]: 13.9 µM·h | inhibition in vivo at 15 mg/kg (Mus musculus [13]): 38% | Ratio [14]: 0.4 | concentration [15]: 1360 nM | Cmax [16]: 2580 nM | Cmax [17]: 650 nM | AUC [18]: 9 µM·h | concentration [19]: 150 nM | AUC [20]: 45.2 µM·h | concentration [21]: 5.82 µM | Cmax [22]: 8.34 µM | AUC [23]: 162.9 µM·h | Ratio [24]: 13.9 | inhibition in vivo at 45 mg/kg (Mus musculus [25]): 67% | solubility [26]: ≥ 4700 µg/mL

[2H]C([2H])([2H])N1C(=O)[C@H](F)C[C@H]1C(=O)N1CC[C@@]2(S(=O)(=O)c3ccc(F)cc3)c3ccc(C(F)(C(F)(F)F)C(F)(F)F)cc3CC[C@@H]12
half-life [1]: > 120 min | half-life [2]: > 120 min | half-life [3]: > 120 min

O=C1[C@H](F)C[C@@H](C(=O)N2CC[C@@]3(S(=O)(=O)c4ccc(F)cc4)c4ccc(C(F)(C(F)(F)F)C(F)(F)F)cc4CC[C@@H]23)N1Cc1ccc(F)cc1
half-life [1]: 35 min | EC50 [27]: 57 nM | EC50 [4]: 7 nM | half-life [2]: 29 min | half-life [3]: 24 min

CO[C@H]1C[C@@H](C(=O)N2CC[C@@]3(S(=O)(=O)c4ccc(F)cc4)c4ccc(C(F)(C(F)(F)F)C(F)(F)F)cc4CC[C@@H]23)N(C)C1=O
half-life [1]: 43 min | half-life [2]: 94 min | half-life [3]: > 120 min

O=C1[C@H](F)C[C@@H](C(=O)N2CC[C@@]3(S(=O)(=O)c4ccc(F)cc4)c4ccc(C(F)(C(F)(F)F)C(F)(F)F)cc4CC[C@@H]23)N1CCO
half-life [1]: 36 min | half-life [2]: 60 min | half-life [3]: > 120 min

N#CCCN1C(=O)[C@H](F)C[C@H]1C(=O)N1CC[C@@]2(S(=O)(=O)c3ccc(F)cc3)c3ccc(C(F)(C(F)(F)F)C(F)(F)F)cc3CC[C@@H]12
half-life [1]: 45 min | EC50 [27]: 30 nM | EC50 [4]: 18 nM | half-life [2]: 79 min | half-life [3]: > 120 min

CN1C(=O)[C@H](F)C[C@H]1C(=O)N1CC[C@@]2(S(=O)(=O)c3ccc(F)cc3)c3ccc(C(F)(C(F)(F)F)C(F)(F)F)cc3CC[C@@H]12
half-life [1]: 55 min | half-life [2]: 75 min | half-life [3]: > 120 min

CN1C(=O)[C@@H](O)C[C@H]1C(=O)N1CC[C@@]2(S(=O)(=O)c3ccc(F)cc3)c3ccc(C(F)(C(F)(F)F)C(F)(F)F)cc3CC[C@@H]12
half-life [1]: 10 min | half-life [2]: 25 min | half-life [3]: 27 min

[2H]C([2H])([2H])N1C(=O)C(F)(F)C[C@H]1C(=O)N1CC[C@@]2(S(=O)(=O)c3ccc(F)cc3)c3ccc(C(F)(C(F)(F)F)C(F)(F)F)cc3CC[C@@H]12
half-life [1]: 58 min | half-life [2]: 88 min | half-life [3]: 57 min
